Measured values: patent US8093260B2, “Aporphine derivatives and pharmaceutical use thereof” (Standard Chem. & Pharm. Co., Ltd., priority 2008, dated 2012)

Columns and labels:
lipid peroxidase = experiment: Activity in inhibiting lipid peroxidase (malondialdehyde quantitation); assay type: biochemical, Dunkin Hartley Guinea pig; details: 10 μM; guinea pig liver microsomes; 20 minutes/37° C.
Experimental: The assay was executed with reference to the method described in Biochem Biophys Res Commun. 1986; 135(3): 1015-1021.
• (a) Source: Dunkin Hartley Guinea pig liver microsomes • (b) Substrate: Polyunsaturated fatty acid • (c) Vehicle: 1% DMSO • (d) Pre-Incubation Time/Temp: 15 minutes/37° C. • (e) Incubation Time/Temp: 20 minutes/37° C. • (f) Incubation Buffer: 0.25 M Potassium Phosphate, pH 7.4, 0.1 mM EDTA • (g) Quantitation Method: Spectrophotometric quantitation of Malondialdehyde

[1] = Free radical scavenging of AAPH (β-phycoerythrin fluorescence decay); assay type: biochemical; details: compound 5×10^−6 M, AAPH 25 mM, β-phycoerythrin 5 nM, FIG. 2
Source text: In order to evaluate the effect of test compounds in scavenging hydrophilic peroxy radical, the experiment was executed with reference to the method described by Tsuchiya et al. (Methods Enzymol 1992; 213: 460-472). In the experiment, peroxides will react with fluorescent substances and thus inflect observed fluorescence intensity. Thereby, the effect of test compounds in free radical scavenging can be evaluated by measuring the variation of the fluorescence intensity after the addition of test compounds.
First, to a silicate tube was added a phosphate solution (2 ml, pH 7.4), followed by the addition of β-phycoerythrin (5 nM) to increase relative fluorescence intensity. After 5 minutes, 2,2′-azobis(2-amidinopropane)dihydrochloride (25 mM, AAPH) was added therein. Subsequently, through a fluorescent spectrometry (Shimadzu RF-5301PC, Japan), the fluorescence intensity of β-phycoerythrin was measured by excitation at 540 nm and emission at 570 nm. Then, the test compounds (5×10^−6 M) was further added therein to observe the variation of the fluorescence intensity, in which 0.1% DMSO was taken as a control group.

[2] = test system: vascular smooth muscle cells of rats; experiment: Protecting activity in vascular smooth muscle cells against H2O2 (MTT); assay type: cell-based, rat; details: compound 10 μM, 30 minutes before H2O2 200 μM, 24 hours, FIG. 3
Experimental: The vascular smooth muscle cells of rats (2×10^4 cells/mL×1 mL) were quantitatively seeded in 24-well plates, and cultured in Dulbecco's modified Eagle medium (DMEM) with 10% fetal bovine serum (FBS) for 24 hours to achieve cell adhesion. After cell adhesion, the DMEM medium with 10% fetal bovine serum was replaced with a fresh DMEM medium with 0.1% fetal bovine serum to perform cell culture for 48 hours.
Next, the test compounds were added in the cultures (final concentration: 0.1, 1, 10 μM). After 30 minutes, H2O2 (200 μM) was added therein to perform reaction for 24 hours in an incubator. Subsequently, in a light-proof environment, MTT (100 μL) was added into each well to perform reaction at 37° C. for 3 hours. The supernatant liquor was removed and then isopropanol (500 μL) was added, followed by shaking for 10 minutes. After standing for 10 minutes, supernatant liquor (200 μL) was transferred into 96-well plates. Finally, the absorbance values (O.D.) were monitored at 540 nm (OD540) and 630 nm (OD630). Based on the measured absorbance values (OD540-OD630), the effect of these test compounds on cell growth can be evaluated, as shown in FIG. 3.

Row | Structure (SMILES) | Inhibition (%) (lipid peroxidase) | protection of β-phycoerythin from peroxy radical AAPH-induced damage (fluorescence decay) [1] | inhibition of H2O2 damage to vascular smooth muscle cells (cell viability, MTT) [2]
1 | COc1cc2c(cc1OC)-c1c(O)c(OC)cc3c1C(C2)N(CC(O)COc1ccccc1OC)CC3 (stereo not drawn) [Compound 1] | 64% | delay β-phycoerythin fluorescence degradation | significantly inhibit H2O2 to damage vascular smooth muscle cells
2 | COc1cc2c(cc1OC)-c1c(O)c(OC)cc3c1C(C2)N(CC(=O)Nc1c(C)cccc1C)CC3 (stereo not drawn) [Compound 2] | 70% | delay β-phycoerythin fluorescence degradation | slightly inhibit H2O2 to damage vascular smooth muscle cells
